{
  "source": "paper PMC10286336",
  "about": "“Potassium ion channels as a molecular target to reduce virus infection and mortality of honey bee colonies” (Virology Journal, 2023)",
  "key": {"DWV-A": {"system": "DWV-A", "assay": "Field colony study, change in virus titer by qRT-PCR: DWV-A", "format": "in vivo, Deformed Wing virus", "experimental": "(§1) Nucleus colonies of bees were established as previously described and relocated to a geographically isolated apiary and were grown to full-size colonies and equalized based on population prior to initiation of the study. The bees were maintained in eight-frame Langstroth equipment and kept as single deeps with a medium super with undrawn foundation. […] DWV inoculum was prepared by injecting filter-sterilized homogenate from a DWV-positive symptomatic bee into white-eyed honey bee pupae. 72-h later, an aliquot of pupae was screened for preliminary confirmation of DWV infection and found to contain between 5E9 and 8E9 viral copies of DWV-A per individual. Remaining pupae were homogenized in ice-cold PBS, with aliquots retained for qRT-PCR screening of DWV, as well as additional viruses relevant to bee health. Homogenate solutions were diluted in 1:1 sucrose and placed in calibrated spray bottles. A treatment and sampling schedule was constructed based on the 21-day egg-to-adult life history of worker bees (Additional file 1: Fig. S1). Both pinacidil and virus solutions were prepared fresh daily. […] A quantity of 15 fully formed adult stage bees were removed from the capped cells and placed into 15 mL conical vials. All samples were stored on dry ice during field collection, then transferred to − 80 °C until virus quantification. Titers of DWV-A, DWV-B, BQCV, IAPV, LSV-1 and LSV-2 were quantified by qRT-PCR using primer sequences described in our previous publications.\n(§2) Samples were removed from − 80 °C storage and placed in a nuclease-free chilled bead bath (~ 4 °C) to gently thaw. […] RNA concentrations were then quantified for each sample using the NanoDrop 1-C® instrument. […] Library construction was performed using the Quantitect Reverse Transcription kit according to manufacturer instructions (Qiagen, N.V.). Template cDNA was then quantified by NanoDrop 1-C® and standardized to 500 ng/uL by addition of nuclease-free H2O.\n(§3) To accurately quantify virus infection, it was necessary to first construct a standard curve for each target virus. […]"}, "Flock House virus (FHV)": {"system": "Flock House virus (FHV)", "design": "method as in PMID 28819165", "details": "cited from earlier work"}, "bee dorsal vessel": {"system": "bee dorsal vessel", "design": "method as in PMID 28412203", "details": "cited from earlier work"}, "bee-relevant viruses": {"system": "bee-relevant viruses", "assay": "Field colony study, bee-relevant viruses overall", "format": "in vivo, Apis mellifera", "experimental": "as §1, §2, §3"}, "[1]": {"system": "Black queen cell virus (BQCV)", "assay": "Field colony study, change in virus titer by qRT-PCR: BQCV", "format": "in vivo", "experimental": "as §1, §2, §3"}, "LSV-2": {"system": "LSV-2", "assay": "Field colony study, change in virus titer by qRT-PCR: LSV-2", "format": "in vivo, Lake Sinai virus", "details": "emerging brood, 2 mM pinacidil, colony level", "experimental": "as §1, with “individual.” for “individual. Remaining pupae were homogenized in ice-cold PBS, with aliquots retained for qRT-PCR screening of DWV, as well as additional viruses relevant to bee health. Homogenate solutions were diluted in 1:1 sucrose and placed in calibrated spray bottles. A treatment and sampling schedule was constructed based on the 21-day egg-to-adult life history of worker bees (Additional file 1: Fig. S1). Both pinacidil and virus solutions were prepared fresh daily.”\nSamples were removed from − 80 °C storage and placed in a nuclease-free chilled bead bath (~ 4 °C) to gently thaw. […] RNA concentrations were then quantified for each sample using the NanoDrop 1-C® instrument. […] Library construction was performed using the Quantitect Reverse Transcription kit according to manufacturer instructions (Qiagen, N.V.). […]"}, "[2]": {"system": "bees inoculated with Israeli acute paralysis virus (IAPV)", "assay": "IAPV-mediated mortality of bees fed KATP modulator or paraquat", "format": "in vivo, Apis mellifera", "experimental": "IAPV was obtained following our previously described methods. Approximately 30 adult bees from a heavily infected IAPV infected colony were froze in liquid nitrogen, ground to a fine powder, and homogenized in a phosphate extraction buffer. The supernatant was collected after centrifuging the emulsion and filtered through a 0.2 micron filter. The filtrate was subsequently centrifuged at 30,000 rpm to pellet the picornavirus particles and was followed by resusopension in PBS and centrifuged at 52,000 rpm overnight. The fractions containing virus particles were dialyzed against cold PBS overnight. Verification that IAPV was the only virus present in the inoculum was performed via qRT-PCR and quantification of IAPV was performed by absolute quantification using standard curve method as previously described.\nBees were immobilized on ice, then injected with PBS alone or containing IAPV and returned to the incubator. […] Quantification of IAPV mRNA among whole bees and excised insect dorsal vessels was performed by qRT-PCR as detailed below."}, "[3]": {"details": "emerging brood, 2 mM pinacidil, colony level"}},
  "data": [
    {"smiles": "CC(N/C(=N\\C#N)Nc1ccncc1)C(C)(C)C", "note": "(centres unmarked) [pinacidil]", "values": [
      {"measurement": "Change of DWV-A titer versus uninoculated colonies", "setting": "DWV-A; emerging brood, 2 mM pinacidil", "result": "not significantly different"},
      {"measurement": "Reduction of change in DWV-A titer compared to virus only inoculated colonies", "setting": "DWV-A; [3]", "result": "eight"},
      {"measurement": "DWV-A titers, virus only versus pinacidil + virus", "setting": "DWV-A; nurse/forager bees", "result": "not significantly different"},
      {"measurement": "Effect against FHV infection of bees", "setting": "Flock House virus (FHV)", "result": "protective effect"},
      {"measurement": "Dorsal vessel contraction rates", "setting": "bee dorsal vessel", "result": "increases"},
      {"measurement": "Reduction of titers of bee-relevant viruses", "setting": "bee-relevant viruses; colonies treated with pinacidil in the field", "result": "up to 75 fold"},
      {"measurement": "Viral replication in nurse bees", "setting": "bee-relevant viruses; field study", "result": "did not reduce viral replication"},
      {"measurement": "Viral replication in emerging bees", "setting": "bee-relevant viruses; field study, mature colonies", "result": "near elimination"},
      {"measurement": "Change in BQCV titer versus untreated colonies", "setting": "[1]; emerging brood, 2 mM pinacidil", "result": "not significantly different"},
      {"measurement": "Reduction of BQCV replication compared to virus only", "setting": "[1]; [3]", "result": 3.8, "unit": "fold"},
      {"measurement": "BQCV replication compared to virus only inoculated colonies", "setting": "[1]; nurse/forager bees", "result": "did not reduce viral replication"},
      {"measurement": "Reduction of LSV-2 replication compared to virus inoculation-only colonies", "setting": "LSV-2", "result": "approximately fivefold"},
      {"measurement": "Mortality of pinacidil + IAPV versus control treatment", "setting": "[2]; 24-, 72-, or 96-h post-inoculation", "result": "No significant difference"},
      {"measurement": "Reduction in mortality compared to control bees", "setting": "[2]; pinacidil + IAPV, 48 and 120 h", "result": 25, "unit": "%"}
    ]}
  ]
}
